In BindingDB's records for patent US12209081 (Katholieke Universiteit Leuven, 2025) one finds IC50 data, which are given here for eight molecules.

For this experiment, the target named is Transient receptor potential cation channel subfamily M member 3 (UniProt J9SQF3). In words: Monitoring the TRPM3 Ion Channel Driven Ca2+ Uptake. The protocol: In order to monitor the inhibition of the mouse TRPM3α2 (mTRPM3) ion channel by the compounds of the invention, a cellular system making use of an mTRPM3alpha2 or hTRPM3 overexpressing cell line (flip-in HEK293) was used. The TRPM3 channel was stimulated/opened with Pregnenolone sulfate (PS) (50 μM) which results in Ca2+ influx. For mTRPM3, the intracellular Ca2+ was measured with a Calcium responsive dye. Fluor-4 AM ester (Invitrogen). Cells were cultured until a confluence of 80-90%, washed with Versene (Invitrogen) and detached from the surface by a short incubation with 0.05% Trypsin (Invitrogen). The trypsination process was stopped by the addition of complete cell culture medium (DMEM, glutamax, 10% FCS,NEAA,Pen-Strep). Cells were collected and resuspended in Krebs buffer without Calcium at RT. Prior the cell seeding (±2000 cells/well into a black, 384 well plate (Greiner)) the diluted compound was added in the assay plate, together with the PS dissolved in Krebs buffer containing Calcium. […] Directly after cell addition the plates were read on an Envision fluorescence reader (Perkin Elmer) by an Excitation of 485 nm and emission at 535 nm. Channel inhibition was calculated compared to a non-PS stimulated control versus a condition stimulated with PS (50 μM) with vehicle. The ability of the compounds of the invention to inhibit this activity was determined as: Percentage inhibition=[1-((RFU determined for sample with test compound present—RFU determined for sample with positive control inhibitor) divided by (RFU determined in the presence of vehicle—RFU determined for sample with positive control inhibitor))]*100.
Transient receptor potential cation channel subfamily M member 3, sequence (J9SQF3 whole entry): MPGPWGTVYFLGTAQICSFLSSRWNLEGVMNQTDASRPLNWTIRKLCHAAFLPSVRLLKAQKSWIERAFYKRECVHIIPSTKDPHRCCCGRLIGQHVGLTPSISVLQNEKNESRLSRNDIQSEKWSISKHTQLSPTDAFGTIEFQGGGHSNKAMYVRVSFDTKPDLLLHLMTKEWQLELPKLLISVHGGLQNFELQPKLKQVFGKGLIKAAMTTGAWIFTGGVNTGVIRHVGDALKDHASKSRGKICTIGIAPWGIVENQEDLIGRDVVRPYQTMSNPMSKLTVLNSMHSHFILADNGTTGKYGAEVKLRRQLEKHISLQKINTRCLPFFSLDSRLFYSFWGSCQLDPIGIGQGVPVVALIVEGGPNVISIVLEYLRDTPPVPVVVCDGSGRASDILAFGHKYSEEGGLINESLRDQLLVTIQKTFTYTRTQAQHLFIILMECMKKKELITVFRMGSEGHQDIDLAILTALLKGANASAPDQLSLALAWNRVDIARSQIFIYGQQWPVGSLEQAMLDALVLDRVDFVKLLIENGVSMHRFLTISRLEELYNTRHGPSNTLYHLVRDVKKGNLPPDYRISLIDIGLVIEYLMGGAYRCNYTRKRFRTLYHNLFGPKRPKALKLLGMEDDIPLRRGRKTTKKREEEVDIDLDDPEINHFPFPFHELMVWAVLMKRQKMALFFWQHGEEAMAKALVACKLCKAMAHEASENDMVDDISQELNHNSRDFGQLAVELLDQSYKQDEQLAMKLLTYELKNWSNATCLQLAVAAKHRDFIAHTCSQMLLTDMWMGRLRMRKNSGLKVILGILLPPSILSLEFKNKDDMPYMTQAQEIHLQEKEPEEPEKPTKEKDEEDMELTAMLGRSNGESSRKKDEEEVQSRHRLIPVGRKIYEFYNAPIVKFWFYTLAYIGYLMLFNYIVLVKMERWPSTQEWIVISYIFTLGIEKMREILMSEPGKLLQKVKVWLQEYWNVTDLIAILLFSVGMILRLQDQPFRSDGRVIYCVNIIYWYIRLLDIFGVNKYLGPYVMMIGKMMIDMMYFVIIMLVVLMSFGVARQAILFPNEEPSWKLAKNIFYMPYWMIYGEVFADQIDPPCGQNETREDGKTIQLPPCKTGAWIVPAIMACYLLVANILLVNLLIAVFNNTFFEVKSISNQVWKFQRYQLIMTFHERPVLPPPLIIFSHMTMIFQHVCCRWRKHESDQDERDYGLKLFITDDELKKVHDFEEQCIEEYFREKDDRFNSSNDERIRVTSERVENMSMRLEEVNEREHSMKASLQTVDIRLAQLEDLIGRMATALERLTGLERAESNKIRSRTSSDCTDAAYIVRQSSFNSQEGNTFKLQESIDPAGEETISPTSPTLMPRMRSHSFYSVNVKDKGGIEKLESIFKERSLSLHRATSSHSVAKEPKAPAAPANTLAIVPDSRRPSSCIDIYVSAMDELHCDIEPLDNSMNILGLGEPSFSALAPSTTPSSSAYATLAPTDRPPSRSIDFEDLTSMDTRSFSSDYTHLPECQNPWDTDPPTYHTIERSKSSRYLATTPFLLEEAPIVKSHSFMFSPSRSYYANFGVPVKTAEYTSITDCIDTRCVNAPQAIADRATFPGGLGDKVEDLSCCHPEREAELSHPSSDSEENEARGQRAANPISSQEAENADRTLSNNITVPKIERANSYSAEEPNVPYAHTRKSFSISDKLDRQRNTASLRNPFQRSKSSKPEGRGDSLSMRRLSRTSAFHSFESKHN

As to `Cc1oc2ccc(OCc3cccnn3)cc2c1C(=O)NC1CCNC1=O` (stereo not drawn) [US12209081, Compound 030], the IC50 (in general, the point on the concentration scale where inhibition reaches its midpoint) is less than 1000 nM.

For the molecule `Cc1oc2ccc(OCc3cncc(C(F)(F)F)c3)cc2c1C(=O)N[C@H]1CCNC1` [US12209081, Compound 055], the IC50 was more than 20000 nM.

Molecule `Cc1oc2ccc(OCc3cccnc3C(F)(F)F)cc2c1C(=O)NC1(CO)COC1` [US12209081, Compound 133] came in with an IC50 of less than 1000 nM.

`Cc1ncsc1COc1ccc2oc(C)c(C(=O)NC3(CN)CCC3)c2c1` [US12209081, Compound 137] displayed a half-inhibitory concentration (IC50) of less than 1000 nM.

In turn, `Cc1oc2ccc(OCc3cccnc3C(F)(F)F)cc2c1C(=O)Nc1cc[nH]n1` [US12209081, Compound 138] had an IC50 of less than 1000 nM.

`Cc1oc2ccc(OCc3cccnc3C#N)cc2c1C(=O)NC1(CO)CCOCC1` [US12209081, Compound 347]: the half-maximal inhibitory concentration (IC50) was less than 1000 nM.

As for `Cc1oc2ccc(OCc3ccnn3CC(F)F)cc2c1C(=O)N[C@H](CO)C(N)=O` [US12209081, Compound 456-En-2], the IC50 was less than 1000 nM.

`Cc1nc(C)c(COc2ccc3oc(C)c(C(=O)N[C@H](CO)C(N)=O)c3c2)s1` [US12209081, Compound 458-En-2] showed an IC50 of less than 1000 nM.
